According to patent US7468443B2, “Alkyl ether derivatives or salts thereof” (Toyama Chemical Co., Ltd., priority 2001, dated 2008):
Where a name gives a salt, the structure may show the parent alone.

Legend:
[1] = test system: PC12 cells; experiment: Activity to accelerate neurite outgrowth (NGF-treated PC12 cells); format: cell-based, rat; details: test compound 10 μM with 2.5s-NGF 40 ng/mL, 48 hours; neutrite outgrowth rate due to NGF taken as 100%
Procedure: [Activity to Accelerate Neurite Outgrowth]
PC12 cells [rat adrenomedullary chromaffinoma (NGF responders)] were cultured in an incubator (5% CO2, 37° C.) by using RPMI1640 medium (available from Nissui Pharmaceutical Co., Ltd.) containing 5% heat inactivated (56° C., 30 minutes) horse serum (available from Bio-Whittaker Inc.), 5% heat inactivated (56° C., 30 minutes) fetal calf serum (available from Sigma Chemical Co.) and 25 μg/ml gentamicin (available from GIBCO BRL).
The cultured PC12 cells were incubated at 37° C. for 30 minutes in phosphate-buffered physiological saline containing 1 mM EDTA, to be detached from a culture flask. The concentration of the cultured PC12 cells was adjusted to 5×10^4 cells/mL with RPMI1640 medium containing 1.5% heat inactivated horse serum, 1.5% heat inactivated fetal calf serum and 25 μg/ml gentamicin, and the resulting cell suspension was dispensed in 2 ml portions into 35-mm tissue culture dishes (mfd. by Falcon Inc.) coated with 0.01% polyornithine [dissolved in 150 mM borate buffer (pH 8.4)]. Then, 2.5s-NGF (available from Wako Pure Chemical Industries, Ltd.) [dissolved in phosphate-buffered physiological saline containing 0.1% bovine serum albumin] and each test compound were added to the medium at the same time so as to adjust their final concentrations to 40 ng/mL and 10 μM, respectively, followed by culturing under conditions of 5% CO2 and 37° C. After 48 hours of the culturing, cells were fixed in a 10% neutral formalin solution for 30 minutes, washed with phosphate-buffered physiological saline and distilled water, and then dried. […] The percentage of the number of cells having an neutrite extended to a length longer than the diameter of the cell body relative to the total number of cells observed (neutrite outgrowth rate) was calculated.
The activity to accelerate neutrite outgrowth was calculated according to the following expression as a neutrite outgrowth acceleration rate attained by the addition of each test compound, by taking a neutrite outgrowth rate due to NGF as 100%: (neutrite outgrowth rate attained by addition of each test compound)/(neutrite outgrowth rate due to NGF)×100 (%)

[2] = test system: sciatic nerve; experiment: Activity to accelerate nerve regeneration (cut sciatic nerve, silicone tube model); format: in vivo, SD strain rats; details: 1 mg/kg orally once a day from the seventh day; measured 21 days after cutting the nerve; regeneration distance relative to control group x100
Procedure: [Activity to Accelerate Nerve Regeneration]
The test was carried out according to the method described in J. Pharmaco. Exp. Ther., Vol. 290, page 348 (1999) and Neuroscience, vol. 88, page 257 (1999).
SD strain rats (male, aged 6 to 7 weeks, and weighing 170 to 280 g) were anesthetized with pentobarbital, and the left sciatic nerve of each rat was exposed in the femoral region, separated from the surrounding connective tissue, and then cut at a distal position which was about 1 cm apart from the gluteus. The ends of the nerve were inserted into a sterilized silicone tube with a length of 8 mm (inside diameter 1.3 mm, and outside diameter 1.8 mm) to a depth of 3.5 mm so that a space of 1 mm might be formed in the middle of the tube. The ends of the nerve were fixed and the nerve was put back to the muscular tissue together with the tube, after which the incised part was sutured. On the seventh day, each test compound dissolved in distilled water was orally administered in a dose of 1 mg/kg, and thereafter the test compound was administered once a day for 13 days in the same manner as above.
Twenty-one days after cutting the nerve, the sciatic nerve was exposed again under pentobarbital anesthesia, and the nerve in the femoral region and the crural region was separated from the surrounding connective tissues, after which the silicone tube at the cut part was removed. A stimulation electrode was set on the proximal side with respect to the cut position, and a recording electrode was set at the most distal position in the crural region. An electric stimulus (voltage: 2 V, delay: 1 msec, and duration: 100 μsec) was given, and an action potential induced by the stimulus was recorded. The recording electrode was gradually moved toward the proximal, and the distance between the cut position and the most distal position at which an action potential had been obtained was measured as regeneration distance. Only distilled water was administered to a control group.
The sciatic nerve regeneration rate of the test compound was calculated according to the following expression: (regeneration distance of drug-treated group)/(regeneration distance of control group)×100 (%)

[3] = test system: cultured neurons from cerebral cortices; experiment: Activity to inhibit the neuronal death induced by Aβ (MTT assay); format: cell-based, Wistar strain rats; details: concentration of 1 μM; Aβ (25 to 35 residues) 20 μmol/L
Procedure: [Activity to Inhibit the Neuronal Death Induced by Aβ]
Inhibitory effect on the death of cultured neurons induced by Aβ was investigated by modifying the method described in Brain Res., vol. 639, page 240 (1994).
Cerebral cortices isolated from the brains of embryos (aged 17 to 19 days) of Wistar strain rats were sliced, and then neurons were dissociated by trypsin treatment. The cells were seeded into a 48-well tissue culture plate at a density of 1×10^5 cells per well and cultured under conditions of 5% CO2 and 37° C. on Dulbecco's modified Eagle's medium added B27 supplement (available from GIBCO BRL) and 3.6 mg/mL glucose.
On the 12th to 13th day of the culture, a potassium chloride solution was added to the medium to adjust the final concentration of potassium chloride to 25 mmol/L. Immediately after this addition, each test compound was added to the medium. After 24 hours, Aβ (a peptides comprising 25 to 35 residues) dissolved in distilled water was added to the medium at a final concentration of 20 μmol/L. After another 24 hours, the medium was replaced with Dulbecco's modified Eagle's medium added B27 supplement and 3.6 mg/mL glucose and test compound.
The inhibitory activity of the test compound against the death of cultured neurons was determined by inhibition against the decrease of reducing ability of MMT. That is, MTT assay [J. Immuno. Methods, vol. […] Inhibition rate=[(MTT assay value of a group treated with Aβ and the drug)−(MTT assay value of a group treated with Aβ)]/[MTT assay value of an untreated group−MTT assay value of a group treated with Aβ]×100 (%).

[4] = Metabolism in human liver microsomes; format: in vitro ADME; details: incubation at 37° C. for 60 minutes, pooled human liver microsomes, NADPH generating system
Procedure: [Metabolism in Human Liver Microsomes]
In a test tube were placed 50 μL of 100 mmol/L potassium phosphate buffer (pH 7.4) and 25 μL of 3 mg protein/mL pooled human liver microsomes (available from Gentest Inc.), and a solution prepared by blending 10 μL of 66 mmol/L sodium glucose 6-phosphate, 10 μL of 10 units/mL glucose 6-phosphate dehydrogenase, 10 μL of 26 mmol/L nicotinamide adenine dinucleotide phosphate oxidized form, 10 μL of 66 mmol/L magnesium chloride and 135 μL of 100 mmol/L potassium phosphate buffer (pH 7.4) was added thereto, followed by preincubation for 5 minutes. Thereto was added 50 μL of each test compound to a concentration of 6 μmol/L to initiate the reaction, and incubation was carried out at 37° C. for 60 minutes (final volume: 300 μL). The reaction was terminated by the addition of 600 μL of acetonitrile, followed by centrifugation at 12000×g and at 4° C. for 15 minutes. The supernatant was separated, concentrated by centrifugation under reduced pressure, and then subjected to high performance liquid chromatography, and the amount of the residual test compound after the metabolic reaction was determined.
The residual rate was calculated by the following equation: Residual rate (%)=[(peak area due to the test compound after 60 minutes of the reaction)/(peak area due to the test compound in the case of stopping the reaction by adding acetonitrile simultaneously with the addition of the test compound after the preincubation)]×100

Structure (SMILES) | melting point | neutrite outgrowth acceleration rate [1] | sciatic nerve regeneration rate [2] | inhibition rate against decrease of MTT assay value induced by Aβ [3] | residual rate [4]
OC1CN(CCOCCc2ccc3sccc3c2)C1 (as salt: hydrochloride) [Example 2, 1-{2-[2-(1-benzothiophen-5-yl)ethoxy]ethyl}-3-azetidinol hydrochloride] | 101 to 102 °C |  |  |  | 
OC1CN(CCOCCc2ccc3sccc3c2)C1 [Example 2, 1-{2-[2-(1-benzothiophen-5-yl)ethoxy]ethyl}-3-azetidinol hydrochloride] |  | 265% |  |  | 
OC1CN(CCCOCCc2ccc3ccsc3c2)C1 [Example 4, 1-{3-[2-(1-benzothiophen-6-yl)ethoxy]propyl}-3-azetidinol hydrochloride] |  |  | 167% | 63% | 80%
OC1CN(CCCOCCc2cc3ccccc3s2)C1 [Example 6, 1-{3-[2-(1-benzothiophen-2-yl)ethoxy]propyl}-3-azetidinol hydrochloride] |  | 300% |  | 48% | 
OC1CN(CCCOCCc2ccc3sccc3c2)C1 [Example 10, 1-{3-[2-(1-benzothiophen-5-yl)ethoxy]propyl}-3-azetidinol hydrochloride] |  |  | 186% | 42% | 70%
OC1CN(CCCOCCc2cccc3sccc23)C1 [Example 12, 1-{3-[2-(1-benzothiophen-4-yl)ethoxy]propyl}-3-azetidinol hydrochloride] |  | 299% | 142% |  | 83%
OC1CN(CCCOCCc2csc3ccccc23)C1 [Example 14, 1-{3-[2-(1-benzothiophen-3-yl)ethoxy]propyl}-3-azetidinol hydrochloride] |  | 207% | 150% | 48% | 75%
OC1CCN(CCOCCc2cccc3ccccc23)C1 (stereo not shown) [Example 29, 1-{2-[2-(1-naphthyl)ethoxy]-ethyl}-3-pyrrolidinol oxalate] |  | 212% |  |  | 
O[C@H]1CCN(CCOCCc2ccc3sccc3c2)C1 [Example 31, (3S)-1-{2-[2-(1-benzothiophen-5-yl)ethoxy]ethyl}-3-pyrrolidinol oxalate] |  |  | 155% | 50% | 
O[C@@H]1CCN(CCOCCc2ccc3sccc3c2)C1 [Example 33, (3R)-1-{2-[2-(1-benzothiophen-5-yl)ethoxy]ethyl}-3-pyrrolidinol oxalate] |  |  | 161% | 54% | 
COc1cc2ccoc2cc1CCOCCN1CCC(O)C1 (stereo not shown) [Example 51, 1-{2-[2-(5-methoxy-1-benzofuran-6-yl)ethoxy]ethyl}-3-pyrrolidinol oxalate] |  | 216% |  |  | 
OC1CCN(CCCOCCc2ccc3sccc3c2)C1 (stereo not shown) [Example 59, 1-{3-[2-(1-benzothiophen-5-yl)ethoxy]propyl}-3-pyrrolidinol hydrochloride] |  | 241% |  |  | 
OC1CCN(CCCOCCc2ccc3occc3c2)C1 (stereo not shown) [Example 61, 1-{3-[2-(1-benzofuran-5-yl)ethoxy]propyl}-3-pyrrolidinol hydrochloride] |  |  |  | 52% | 74%
OC1CCN(CCOCCc2ccc3ccccc3c2)C1 (stereo not shown) [Example 69, 1-{2-[2-(2-naphthyl)ethoxy]ethyl}-3-pyrrolidinol oxalate] |  | 233% |  | 70% | 74%
O[C@@H]1CN(CCOCCc2ccc3sccc3c2)C[C@@H]1O [Example 71, (3R, 4S)-1-{2-[2-(1-benzothiophen-5-yl)ethoxy]ethyl}-3,4-pyrrolidinediol hydrochloride] |  | 183% |  |  | 80%
NC1CCN(CCCOCCc2ccc3sccc3c2)C1 (stereo not shown) [Example 74, 1-{3-[2-(1-benzothiophen-5-yl)ethoxy]propyl}-3-pyrrolidinamine oxalate] |  | 246% |  | 50% | 71%
CN(C)C1CCN(CCCOCCc2ccc3sccc3c2)C1 (stereo not shown) [Example 80, 1-{3-[2-(1-benzothiophen-5-yl)ethoxy]propyl}-N,N-dimethyl-3-pyrrolidinamine dihydrochloride] |  | 190% |  | 75% | 
OC1CN(CCCOCCc2ccc3sccc3c2)C1 [Example 81, 1-{3-[2-(1-benzothiophen-5-yl)ethoxy]propyl}-3-azetidinol 1/2 fumarate] |  | 190% |  |  | 
